From PubChem BioAssay AID248 (DTP/NCI, 2004)
Where “and” joins values, the source holds several entries; their conditions need not be identical. Identical values can stand only once. Toxic doses and inconclusive results are not listed. No stated cut-off is given here; in the data, active means T/C of 150% or more; inactive means T/C below 125%.

System: L1210 leukemia ip in BDF1 mice, survival T/C
Assay: NCI In Vivo Anticancer Drug Screen. Data for tumor model L1210 Leukemia (intraperitoneal) in B6D2F1 (BDF1) mice
Settings: endpoint: mean survival time, higher = longer survival
How it was run: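 Tumor cells were implanted, animals were treated, and survival was followed. The result divides the treated measurement by the vehicle-control measurement.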

[1] = dose: 100.0 mg/kg/injection, schedule: Q01DX001 (ip), vehicle: saline
[2] = dose: 100.0 mg/kg/injection, schedule: Q01DX009 (ip), vehicle: saline
[3] = dose: 100.0 mg/kg/injection, schedule: Q04DX002 (ip), vehicle: Klucel (hydroxypropylcellulose) (HPC)
[4] = dose: 100.0 mg/kg/injection, schedule: Q04DX003 (ip), vehicle: saline with Tween-80
[5] = dose: 200.0 mg/kg/injection, schedule: Q01DX001 (ip), vehicle: saline
[6] = dose: 200.0 mg/kg/injection, schedule: Q04DX002 (ip), vehicle: Klucel (hydroxypropylcellulose) (HPC)
[7] = dose: 200.0 mg/kg/injection, schedule: Q04DX003 (ip), vehicle: saline with Tween-80
[8] = dose: 400.0 mg/kg/injection, schedule: Q01DX001 (ip), vehicle: saline
[9] = dose: 400.0 mg/kg/injection, schedule: Q04DX002 (ip), vehicle: Klucel (hydroxypropylcellulose) (HPC)
[10] = dose: 400.0 mg/kg/injection, schedule: Q04DX003 (ip), vehicle: saline with Tween-80
[11] = dose: 100.0 mg/kg/injection, schedule: Q04DX003 (ip), vehicle: saline
[12] = dose: 200.0 mg/kg/injection, schedule: Q04DX003 (ip), vehicle: saline
[13] = dose: 400.0 mg/kg/injection, schedule: Q04DX003 (ip), vehicle: saline
[14] = dose: 25.0 mg/kg/injection, schedule: Q01DX009 (ip), vehicle: Klucel (hydroxypropylcellulose) (HPC)
[15] = dose: 50.0 mg/kg/injection, schedule: Q01DX009 (ip), vehicle: Klucel (hydroxypropylcellulose) (HPC)
[16] = dose: 100.0 mg/kg/injection, schedule: Q01DX009 (ip), vehicle: Klucel (hydroxypropylcellulose) (HPC)
[17] = dose: 200.0 mg/kg/injection, schedule: Q01DX009 (ip), vehicle: Klucel (hydroxypropylcellulose) (HPC)
[18] = dose: 400.0 mg/kg/injection, schedule: Q01DX009 (ip), vehicle: Klucel (hydroxypropylcellulose) (HPC)
[19] = dose: 100.0 mg/kg/injection, schedule: Q01DX009 (ip), vehicle: saline with Tween-80
[20] = dose: 50.0 mg/kg/injection, schedule: Q01DX009 (ip), vehicle: saline

Measured: T/C

Cc1cnc(SC(C)(C)C)c(C)c1
inactive: [1] 109 % of control | [2] 100 % of control | [3] 98 % of control and 100 % of control | [4] 108 % of control | [5] 107 % of control | dose: 200.0 mg/kg/injection, schedule: Q01DX009 (ip), vehicle: saline 94 % of control and 104 % of control | [6] 100 % of control and 106 % of control | [7] 102 % of control | [8] 109 % of control | dose: 400.0 mg/kg/injection, schedule: Q01DX009 (ip), vehicle: saline 100 % of control and 107 % of control | [9] 95 % of control and 97 % of control | [10] 91 % of control

CC(=O)NCCCC(=O)O
inactive: [11] 101 % of control | [12] 103 % of control | [13] 100 % of control

CCCCCCCCCOc1ccc(C=Nc2ccc(CC)cc2)cc1
inactive: dose: 12.5 mg/kg/injection, schedule: Q01DX009 (ip), vehicle: Klucel (hydroxypropylcellulose) (HPC) 92 % of control | [14] 90 % of control | [15] 92 % of control

CCOC(=O)n1cccc(C)c1=N
inactive: dose: 100.0 mg/kg/injection, schedule: Q01DX001 (ip), vehicle: carboxymethylcellulose (CMC) 102 % of control | dose: 200.0 mg/kg/injection, schedule: Q01DX001 (ip), vehicle: carboxymethylcellulose (CMC) 100 % of control | dose: 400.0 mg/kg/injection, schedule: Q01DX001 (ip), vehicle: carboxymethylcellulose (CMC) 102 % of control

CSc1ccccc1C(=O)NNS(=O)(=O)c1ccc(C)cc1
inactive: [16] 101 % of control | dose: 100.0 mg/kg/injection, schedule: Q04DX003 (ip), vehicle: Klucel (hydroxypropylcellulose) (HPC) 95 % of control | [17] 103 % of control | dose: 200.0 mg/kg/injection, schedule: Q04DX003 (ip), vehicle: Klucel (hydroxypropylcellulose) (HPC) 97 % of control | [18] 95 % of control | dose: 400.0 mg/kg/injection, schedule: Q04DX003 (ip), vehicle: Klucel (hydroxypropylcellulose) (HPC) 97 % of control

CC(=O)N1C(=O)/C(=C\c2cc3c(cc2Br)OCO3)c2cc3c(cc21)OCO3
inactive: dose: 50.0 mg/kg/injection, schedule: Q01DX001 (ip), vehicle: saline 118 % of control | [1] 100 % of control | [5] 106 % of control | [8] 106 % of control

NC(CCl)=NCCOC12CC3CC(CC(C3)C1)C2
inactive: dose: 25.0 mg/kg/injection, schedule: Q04DX002 (ip), vehicle: saline 94 % of control | dose: 50.0 mg/kg/injection, schedule: Q04DX002 (ip), vehicle: saline 112 % of control | dose: 100.0 mg/kg/injection, schedule: Q04DX002 (ip), vehicle: saline 96 % of control and 87 % of control

Fc1nc2nc(C(F)(F)F)[nH]c2nc1F
inactive: dose: 25.0 mg/kg/injection, schedule: Q01DX009 (ip), vehicle: saline with Tween-80 93 % of control | dose: 50.0 mg/kg/injection, schedule: Q01DX009 (ip), vehicle: saline with Tween-80 90 % of control | [19] 95 % of control | [2] 103 % of control | [4] 95 % of control | [7] 105 % of control | [10] 90 % of control

[Cl][Sn]([CH2]c1ccccc1)([CH2]c1ccccc1)[CH2]c1ccccc1
inactive: dose: 0.39 mg/kg/injection, schedule: Q04DX002 (ip), vehicle: saline with Tween-80 94 % of control | dose: 0.78 mg/kg/injection, schedule: Q04DX002 (ip), vehicle: saline with Tween-80 106 % of control | dose: 1.56 mg/kg/injection, schedule: Q04DX002 (ip), vehicle: saline with Tween-80 108 % of control | dose: 3.13 mg/kg/injection, schedule: Q04DX002 (ip), vehicle: saline with Tween-80 108 % of control

NCc1cccc2ccccc12
inactive: dose: 62.5 mg/kg/injection, schedule: Q01DX001 (ip), vehicle: saline 109 % of control | [1] 112 % of control | dose: 125.0 mg/kg/injection, schedule: Q01DX001 (ip), vehicle: saline 104 % of control | [5] 96 % of control

Cc1c(Cl)cc(Cl)c(N)c1Cl
inactive: [4] 100 % of control | [7] 98 % of control | [10] 96 % of control

O=C(O)CCNC(=O)CNC(=O)OCc1ccccc1
inactive: [16] 98 % of control | [17] 100 % of control | dose: 300.0 mg/kg/injection, schedule: Q01DX009 (ip), vehicle: Klucel (hydroxypropylcellulose) (HPC) 98 % of control

Cc1ccc(S(=O)(=O)NC(Cc2ccccc2)C(=O)CCl)cc1 (stereo not given)
inactive: [4] 92 % of control | [7] 92 % of control

COc1ccc(CC2C(=O)OC(=O)C2Cc2ccc(OC)c(OC)c2)cc1OC (stereo not given)
inactive: [4] 91 % of control | [7] 104 % of control | [10] 94 % of control

CCc1[nH]c(=O)nc2[nH]c3ccccc3c12
inactive: [3] 90 % of control | [6] 93 % of control | [9] 97 % of control

C1=NCCCN1
inactive: [20] 89 % of control | [2] 94 % of control | [11] 97 % of control | [12] 100 % of control

CCCCCCCCCCCCCCCCS(=O)(=O)CCO
inactive: [19] 98 % of control | dose: 200.0 mg/kg/injection, schedule: Q01DX009 (ip), vehicle: saline with Tween-80 93 % of control | dose: 400.0 mg/kg/injection, schedule: Q01DX009 (ip), vehicle: saline with Tween-80 92 % of control

C=CC(C)(C)CCCC
inactive: [11] 104 % of control | [12] 101 % of control | [13] 110 % of control

Cc1ccc([N+](=O)[O-])cc1NC(=O)Nc1cccc(C(F)(F)F)c1
inactive: [14] 102 % of control | [15] 92 % of control | [16] 86 % of control | [17] 87 % of control | [18] 87 % of control

Brc1ccc(C2=CSC3=NCCN23)cc1
inactive: dose: 25.0 mg/kg/injection, schedule: Q04DX003 (ip), vehicle: Klucel (hydroxypropylcellulose) (HPC) 96 % of control | dose: 50.0 mg/kg/injection, schedule: Q04DX003 (ip), vehicle: Klucel (hydroxypropylcellulose) (HPC) 96 % of control

CCOc1ccccc1/C=N/N=C(N)N
inactive: dose: 63.0 mg/kg/injection, schedule: Q01DX Z (ip), vehicle: carboxymethylcellulose (CMC) 95 % of control | dose: 125.0 mg/kg/injection, schedule: Q01DX Z (ip), vehicle: carboxymethylcellulose (CMC) 95 % of control

CC/C=C(\C)C1(CC)C(=O)NC(=O)NC1=O
inactive: dose: 75.0 mg/kg/injection, schedule: Q01DX001 (ip), vehicle: saline 102 % of control | dose: 150.0 mg/kg/injection, schedule: Q01DX001 (ip), vehicle: saline 95 % of control

CCOC(=O)C1CSCN1 (stereo not given)
inactive: [11] 104 % of control | [12] 89 % of control

CCOc1cc(C(F)(F)F)nc2c3c(cc(OC)c12)CCCN3CC
inactive: [4] 102 % of control | [7] 100 % of control | [10] 97 % of control

CCN1Cc2ccc(O)cc2C1
inactive: dose: 25.0 mg/kg/injection, schedule: Q01DX009 (ip), vehicle: saline 103 % of control | dose: 25.0 mg/kg/injection, schedule: Q04DX003 (ip), vehicle: saline 107 % of control | [20] 95 % of control | dose: 50.0 mg/kg/injection, schedule: Q04DX003 (ip), vehicle: saline 107 % of control | [2] 96 % of control and 97 % of control | [11] 100 % of control and 102 % of control
